Data: patent US20260097022A1, “COMPOUNDS AND USES THEREOF” (Integrated Biosciences, Inc., priority 2023, published 2026)
Counter-ions that a name gives are not always drawn.

Each compound was assayed on etoposide-treated IMR-90 cells (assay: Etoposide-induced senescence model, resazurin cell viability (screen and dose-response)). Conditions: 1 μM, 3 days.
Assay type: cell-based, human
Description: Cell culture. Human lung fibroblast (IMR-90) cells were obtained from ATCC (CCL-186) and passaged less than 10 times (less than 30 population doublings) for all experiments described in this example, with the exception of high-passage cells used in the model of replicative senescence (see the section on Replicative senescence below). Cells were cultured in growth media comprising Eagle's Minimum Essential Medium (EMEM: ATCC 30-2003) supplemented with 10% fetal bovine serum (FBS: Thermo Fisher 16140071) and 1% penicillin-streptomycin (Thermo Fisher 15070063). Cells were incubated in a humidity-controlled incubator at 37° C., with 5% CO2. Cells were detached using trypsin-EDTA (0.05%; Gibco 25300120).
Etoposide-induced senescence. IMR-90 cells were cultured as described above. At between 30 to 50% confluence, the media was replaced with complete growth media containing vehicle (0.5% dimethyl sulfoxide: DMSO, MilliporeSigma D5879) or complete growth media containing 50 μM etoposide (prepared as a 1:200 dilution of a 10 mM stock solution in DMSO; etoposide, MilliporeSigma E1383). Cells were treated for 2 days, after which the media was replaced with fresh growth media and cells were allowed to recover for 4 days. Cells were then plated as described below.
Chemical screening. For all screening experiments. 99 μL of cells were plated into each well of a 96-well clear flat-bottom, black polystyrene tissue-culture-treated plate (Corning 3904) at a density of ˜10+ cells/well. Plates were incubated overnight for adhesion. The day after plating. 1 μL of each compound, prepared as either a 1 mM stock solution in DMSO (10 μM final concentration screen) or 0.1 mM stock solution in DMSO (1 μM final concentration screen), was added to each well using an Agilent Bravo liquid handler. A built-in slow mixing step involving aspirating and dispensing was used to enhance distribution of the added compounds in solution. Cells were incubated for 3 days, after which resazurin (MilliporeSigma R^7017) was added to each well to a final concentration of 0.15 mM. After an additional 1 day of incubation, the fluorescence excitation/emission at 550/590 nm was read using a SpectraMaxR M3 plate reader and manufacturer software (SoftMax Pro R 6). Experiments were performed in biological duplicate.
Three-fold serial dilutions of compound were prepared in DMSO, then added to cell plates (final concentration of DMSO. 1%). Cell viability was then assayed as detailed above, and resazurin fluorescence values were linearly interpolated with respect to values from empty and positive control (non-treatment) wells. Experiments were performed in biological duplicate each on two independent occasions. When possible, chemical stocks from commercial suppliers were used: econazole nitrate (Cayman Chemical 20223), artenimol (Cayman Chemical 19846), and ABT-263 (Cayman Chemical 11500) were from Cayman Chemical, and dehydrodeguelin was aliquoted from the screening library.
Calculation of cellular viability values in dose-response curves. […] For each sample, the fluorescence intensity value was normalized by the mean of two untreated control values. Cellular viability values are therefore indicated as fractions of the cellular viability of untreated controls. Vehicle (1% DMSO) control values are included in each dose-response curve. Experiments were performed in biological duplicate each on two independent occasions.
Calculation of baseline cellular viability values. […] Additionally, baseline cellular viability values were calculated for untreated cells at the start of the experiment. Resazurin was added to a final concentration of 0.15 mM on the day of seeding (corresponding to day 0 in FIG. 7).

Row | SMILES | senolytic activity in screen
1 | Cc1c(-c2ccc(N3CCc4cccc(C(=O)Nc5nc6ccccc6s5)c4C3)nc2C(=O)O)cnn1CC12CC3CC(CC(C3)C1)C2 [A-1331852, reference compound] | inactive
2 | CN(C)CCCN1c2ccccc2CCc2ccccc21 [imipramine hydrochloride, reference compound] | active

Same assay, conditions: 10 μM, 3 days; active: control viability >0.5, Snc/control ratio <0.7

Row | SMILES | senolytic activity in screen
3 | Cc1c(-c2ccc(N3CCc4cccc(C(=O)Nc5nc6ccccc6s5)c4C3)nc2C(=O)O)cnn1CC12CC3CC(CC(C3)C1)C2 [A-1331852, reference compound] | active

Same assay, conditions: etoposide-induced senescence model; ratio of IC50 values between etoposide- and DMSO-treated IMR-90 fibroblasts

Row | SMILES | Therapeutic Index (TI)
4 | COc1ccccc1NC(=O)CSc1nc2ccc(NC(=O)c3ccc(C)cc3)cc2s1 [compound 39] | ++ (compounds with a TI of 1 to 5 were labelled as ++)
5 | CS(=O)(=O)c1cccc(C(=O)Nc2ccc3nc(SCC(=O)Nc4ccc(F)cc4)sc3c2)c1 [compound 174] | +++ (compounds with a TI of >5 were labeled as +++)
6 | Cc1ccc(NC(=O)CSc2nc3ccc(NC(=O)c4ccccc4C)cc3s2)c(C)c1 [compound 99] | ++ (compounds with a TI of 1 to 5 were labelled as ++)
7 | Cc1cc(C)c(NC(=O)C(C)Sc2nc3ccc(NC(=O)c4ccccc4C)cc3s2)c(C)c1 (stereo not drawn) [compound 144] | + (Compounds with a TI of <1 were labelled as +)
8 | Cc1ccc(NC(=O)CSc2nc3ccc(NC(=O)c4ccccc4)cc3s2)c(C)c1 [compound 88] | ++ (compounds with a TI of 1 to 5 were labelled as ++)
9 | Cc1cccc(NC(=O)CSc2nc3ccc(NC(=O)c4ccccc4C)cc3s2)c1 [compound 159] | + (Compounds with a TI of <1 were labelled as +)
10 | CC(=O)c1ccc(NC(=O)CSc2nc3ccc(NC(=O)c4ccccc4Cl)cc3s2)cc1 [compound 17] | +++ (compounds with a TI of >5 were labeled as +++)
11 | O=C(CSc1nc2ccc(NC(=O)c3ccc(CO)c(F)c3)cc2s1)Nc1ccc(F)cc1 [compound 171] | +++ (compounds with a TI of >5 were labeled as +++)
12 | CCCCOc1ccc(C(=O)Nc2ccc3nc(SCC(=O)Nc4ccc(C(C)=O)cc4)sc3c2)cc1 [compound 78] | ++ (compounds with a TI of 1 to 5 were labelled as ++)
13 | CC(C)(C)c1ccc(C(=O)Nc2ccc3nc(SCC(=O)Nc4ccccc4)sc3c2)cc1 [compound 98] | ++ (compounds with a TI of 1 to 5 were labelled as ++)
14 | COc1ccc(C(=O)Nc2ccc3nc(SCC(=O)Nc4ccc(C)cc4C)sc3c2)cc1 [compound 11] | +++ (compounds with a TI of >5 were labeled as +++)
15 | CCOc1ccc(C(=O)Nc2ccc3nc(SCC(=O)N(C)c4ccccc4)sc3c2)cc1 [compound 49] | ++ (compounds with a TI of 1 to 5 were labelled as ++)
16 | CCOc1ccc(C(=O)Nc2ccc3nc(SCC(=O)Nc4cccc(C)c4)sc3c2)cc1 [compound 80] | ++ (compounds with a TI of 1 to 5 were labelled as ++)
17 | COc1ccc(C(=O)Nc2ccc3nc(SCC(=O)N4CCc5ccccc54)sc3c2)cc1 [compound 33] | ++ (compounds with a TI of 1 to 5 were labelled as ++)
18 | CCOc1ccc(NC(=O)CSc2nc3ccc(NC(=O)c4ccccc4)cc3s2)cc1 [compound 166] | + (Compounds with a TI of <1 were labelled as +)
19 | CCc1cccc(CC)c1NC(=O)CSc1nc2ccc(NC(=O)c3cccc(C)c3)cc2s1 [compound 32] | ++ (compounds with a TI of 1 to 5 were labelled as ++)
20 | Cc1ccc(C(=O)Nc2ccc3nc(SCC(=O)N(C)c4ccccc4)sc3c2)cc1 [compound 81] | ++ (compounds with a TI of 1 to 5 were labelled as ++)
21 | Cc1cccc(NC(=O)CSc2nc3ccc(NC(=O)c4ccccc4Cl)cc3s2)c1C [compound 95] | ++ (compounds with a TI of 1 to 5 were labelled as ++)
22 | Cc1cccc(C(=O)Nc2ccc3nc(SCC(=O)Nc4cc(Cl)ccc4C)sc3c2)c1 [compound 70] | ++ (compounds with a TI of 1 to 5 were labelled as ++)
23 | COc1ccc(C(=O)Nc2ccc3nc(SCC(=O)Nc4cc(C)cc(C)c4)sc3c2)cc1 [compound 103] | ++ (compounds with a TI of 1 to 5 were labelled as ++)

Row | SMILES | Therapeutic Index (TI)
24 | CC(=O)Nc1ccc(NC(=O)CSc2nc3ccc(NC(=O)c4ccccc4)cc3s2)cc1 [compound 135] | ++ (compounds with a TI of 1 to 5 were labelled as ++)
25 | CCCCOc1ccc(NC(=O)CSc2nc3ccc(NC(=O)c4ccc(C)cc4)cc3s2)cc1 [compound 34] | ++ (compounds with a TI of 1 to 5 were labelled as ++)
26 | COc1ccc(C(=O)Nc2ccc3nc(SCC(=O)Nc4ccccc4C)sc3c2)cc1 [compound 60] | ++ (compounds with a TI of 1 to 5 were labelled as ++)
27 | CCCCOc1ccc(NC(=O)CSc2nc3ccc(NC(=O)c4ccc(C(C)(C)C)cc4)cc3s2)cc1 [compound 9] | +++ (compounds with a TI of >5 were labeled as +++)
28 | COc1ccc(NC(=O)CSc2nc3ccc(NC(=O)c4cccc(OC)c4)cc3s2)cc1 [compound 12] | +++ (compounds with a TI of >5 were labeled as +++)
29 | CCC(Sc1nc2ccc(NC(=O)c3ccccc3)cc2s1)C(=O)Nc1ccc(C(C)=O)cc1 (stereo not drawn) [compound 15] | +++ (compounds with a TI of >5 were labeled as +++)
30 | COc1ccccc1NC(=O)CSc1nc2ccc(NC(=O)c3ccccc3C)cc2s1 [compound 163] | + (Compounds with a TI of <1 were labelled as +)
31 | CCCCOc1ccc(NC(=O)CSc2nc3ccc(NC(=O)c4ccccc4)cc3s2)cc1 [compound 89] | ++ (compounds with a TI of 1 to 5 were labelled as ++)
32 | CCOc1ccc(NC(=O)CSc2nc3ccc(NC(=O)c4ccccc4OC)cc3s2)cc1 [compound 40] | ++ (compounds with a TI of 1 to 5 were labelled as ++)
33 | O=C(CSc1nc2ccc(NC(=O)c3ccccc3Br)cc2s1)Nc1ccccc1 [compound 127] | ++ (compounds with a TI of 1 to 5 were labelled as ++)
34 | O=C(CSc1nc2ccc(NC(=O)c3ccccc3)cc2s1)Nc1ccc(Br)cc1 [compound 137] | ++ (compounds with a TI of 1 to 5 were labelled as ++)
35 | CCOc1ccc(C(=O)Nc2ccc3nc(SCC(=O)Nc4cc(C)cc(C)c4)sc3c2)cc1 [compound 43] | ++ (compounds with a TI of 1 to 5 were labelled as ++)
36 | CCOc1ccccc1NC(=O)CSc1nc2ccc(NC(=O)c3ccccc3Cl)cc2s1 [compound 26] | +++ (compounds with a TI of >5 were labeled as +++)
37 | COc1ccc(NC(=O)CSc2nc3ccc(NC(=O)c4ccc(C)cc4)cc3s2)cc1 [compound 115] | ++ (compounds with a TI of 1 to 5 were labelled as ++)
38 | O=C(CSc1nc2ccc(NC(=O)c3ccccc3)cc2s1)Nc1cccc([N+](=O)[O-])c1 [compound 87] | ++ (compounds with a TI of 1 to 5 were labelled as ++)
39 | Cc1ccc(C(=O)Nc2ccc3nc(SCC(=O)N4CCc5ccccc54)sc3c2)cc1 [compound 18] | +++ (compounds with a TI of >5 were labeled as +++)
40 | Cc1ccc(NC(=O)C(C)Sc2nc3ccc(NC(=O)c4ccccc4F)cc3s2)cc1 (stereo not drawn) [compound 10] | +++ (compounds with a TI of >5 were labeled as +++)
41 | Cc1ccccc1NC(=O)CSc1nc2ccc(NC(=O)c3ccccc3C)cc2s1 [compound 152] | + (Compounds with a TI of <1 were labelled as +)
42 | CCCCOc1ccc(NC(=O)CSc2nc3ccc(NC(=O)c4ccccc4OC)cc3s2)cc1 [compound 109] | ++ (compounds with a TI of 1 to 5 were labelled as ++)
